Source: article PMC5218480 (PLoS ONE, 2017)

System: MV-4-11 cells
Experiment: Gene expression microarray analysis (Affymetrix PrimeView) and GSEA
Type: cell-based, human
Design: RFU PODN (11730768_x_at) / Fold change /veh PODN (11730768_x_at) / RFU LINC00158 (11744669_a_at) / Fold change /veh LINC00158 (11744669_a_at) / RFU DUSP10 (11751237_a_at) / Fold change /veh DUSP10 (11751237_a_at) / RFU ID3 (11757404_x_at) / Fold change /veh ID3 (11757404_x_at) / RFU PLEKHG5 (11737974_s_at) / Fold change /veh PLEKHG5 (11737974_s_at) / RFU LRRC4B (11730491_at) / Fold change /veh LRRC4B (11730491_at) / RFU GIMAP4 (11747438_a_at) / Fold change /veh GIMAP4 (11747438_a_at) / RFU KRT8 (11758183_x_at) / Fold change /veh KRT8 (11758183_x_at) / RFU CNN1 (11734310_a_at) / Fold change /veh CNN1 (11734310_a_at) / RFU VPS37D (11726825_at) / Fold change /veh VPS37D (11726825_at) / RFU C10orf10 (11716522_x_at) / Fold change /veh C10orf10 (11716522_x_at) / RFU KIR2DL2 /// KIR2DL4 /// KIR2DL5A /// KIR2DL5B /// KIR2DS1 /// KIR2DS2 /// KIR2DS3 /// KIR2DS4 /// KIR3DL3 /// KIR3DL3 /// KIR3DS1 (11738374_at) / Fold change /veh KIR2DL2 /// KIR2DL4 /// KIR2DL5A /// KIR2DL5B /// KIR2DS1 /// KIR2DS2 /// KIR2DS3 /// KIR2DS4 /// KIR3DL3 /// KIR3DL3 /// KIR3DS1 (11738374_at) / RFU C1QL1 (11718748_at) / Fold change /veh C1QL1 (11718748_at) / RFU TMPRSS4 (11747572_a_at) / Fold change /veh TMPRSS4 (11747572_a_at) / RFU HAMP (11756126_x_at) / Fold change /veh HAMP (11756126_x_at) / RFU RNFT2 (11725882_a_at) / Fold change /veh RNFT2 (11725882_a_at) / RFU NR4A2 (11747474_a_at) / Fold change /veh NR4A2 (11747474_a_at) / RFU ABCC12 (11746883_a_at) / Fold change /veh ABCC12 (11746883_a_at) / RFU TMEM136 (11760407_x_at) / Fold change /veh TMEM136 (11760407_x_at) / RFU CLDN22 /// WWC2 (11732394_at) / Fold change /veh CLDN22 /// WWC2 (11732394_at) / RFU HLA-DPB1 (11760878_x_at) / Fold change /veh HLA-DPB1 (11760878_x_at) / RFU SPINT1 (11716480_a_at) / Fold change /veh SPINT1 (11716480_a_at) / RFU GAP43 (11754022_s_at) / Fold change /veh GAP43 (11754022_s_at) / RFU A4GNT (11735810_at) / Fold change /veh A4GNT (11735810_at) / RFU PRB3 (11715151_x_at) / Fold change /veh PRB3 (11715151_x_at) / RFU TUBB4B (11761932_at) / Fold change /veh TUBB4B (11761932_at) / RFU CAPN14 (11732068_a_at) / Fold change /veh CAPN14 (11732068_a_at) / RFU TMCC2 (11721928_a_at) / Fold change /veh TMCC2 (11721928_a_at) / RFU IRGQ (11745062_a_at) / Fold change /veh IRGQ (11745062_a_at) / RFU FAM174B (11720279_a_at) / Fold change /veh FAM174B (11720279_a_at) / RFU TMPRSS4 (11748680_a_at) / Fold change /veh TMPRSS4 (11748680_a_at) / RFU FAM212B (11763350_a_at) / Fold change /veh FAM212B (11763350_a_at) / RFU PLEKHG5 (11743358_a_at) / Fold change /veh PLEKHG5 (11743358_a_at) / RFU ZSCAN30 (11745921_a_at) / Fold change /veh ZSCAN30 (11745921_a_at) / RFU CMKLR1 (11741424_a_at) / Fold change /veh CMKLR1 (11741424_a_at) / RFU LOC101060620 /// MAPK8IP1 (11723275_at) / Fold change /veh LOC101060620 /// MAPK8IP1 (11723275_at) / RFU SPTSSB (11747773_x_at) / Fold change /veh SPTSSB (11747773_x_at) / RFU PRSS12 (11739890_at) / Fold change /veh PRSS12 (11739890_at) / RFU BIN1 (11741810_x_at) / Fold change /veh BIN1 (11741810_x_at) / RFU WNT11 (11732464_a_at) / Fold change /veh WNT11 (11732464_a_at) / RFU C10orf10 (11716521_a_at) / Fold change /veh C10orf10 (11716521_a_at) / RFU C5orf56 (11738089_at) / Fold change /veh C5orf56 (11738089_at) / RFU CYB561 (11721691_x_at) / Fold change /veh CYB561 (11721691_x_at) / RFU ANKRD19P (11752326_a_at) / Fold change /veh ANKRD19P (11752326_a_at) / RFU OR2T12 /// OR2T33 /// OR2T8 (11738714_s_at) / Fold change /veh OR2T12 /// OR2T33 /// OR2T8 (11738714_s_at) / RFU VCAN (11748164_a_at) / Fold change /veh VCAN (11748164_a_at) / RFU JSRP1 (11732532_at) / Fold change /veh JSRP1 (11732532_at) / RFU KRTAP10-11 (11738290_x_at) / Fold change /veh KRTAP10-11 (11738290_x_at) / RFU MYO3A (11730013_a_at) / Fold change /veh MYO3A (11730013_a_at) / RFU EBF3 (11725865_a_at) / Fold change /veh EBF3 (11725865_a_at) / RFU CAMK2N1 (11719241_x_at) / Fold change /veh CAMK2N1 (11719241_x_at) / RFU C5orf56 (11738088_a_at) / Fold change /veh C5orf56 (11738088_a_at) / RFU OLFML3 (11715873_a_at) / Fold change /veh OLFML3 (11715873_a_at) / RFU LOC100653217 /// NTM (11731650_a_at) / Fold change /veh LOC100653217 /// NTM (11731650_a_at) / RFU MAPK11 (11762145_a_at) / Fold change /veh MAPK11 (11762145_a_at) / RFU FIZ1 (11724087_x_at) / Fold change /veh FIZ1 (11724087_x_at) / RFU OASL (11726364_x_at) / Fold change /veh OASL (11726364_x_at) / RFU SOX15 (11748057_x_at) / Fold change /veh SOX15 (11748057_x_at) / RFU CD79A (11719716_a_at) / Fold change /veh CD79A (11719716_a_at) / RFU HIST1H1D (11736915_at) / Fold change /veh HIST1H1D (11736915_at) / RFU CASKIN2 (11723855_a_at) / Fold change /veh CASKIN2 (11723855_a_at) / RFU LOC730098 (11760151_x_at) / Fold change /veh LOC730098 (11760151_x_at) / RFU OR4N2 (11742367_at) / Fold change /veh OR4N2 (11742367_at) / RFU PRRT2 (11749266_a_at) / Fold change /veh PRRT2 (11749266_a_at) / RFU SNX32 (11753110_a_at) / Fold change /veh SNX32 (11753110_a_at) / RFU CDHR5 (11726645_a_at) / Fold change /veh CDHR5 (11726645_a_at) / RFU RCAN1 (11760418_a_at) / Fold change /veh RCAN1 (11760418_a_at) / RFU FAM167A (11723789_a_at) / Fold change /veh FAM167A (11723789_a_at) / RFU FAM26E (11764081_at) / Fold change /veh FAM26E (11764081_at) / RFU ISYNA1 (11749810_s_at) / Fold change /veh ISYNA1 (11749810_s_at) / RFU ACY1 (11761880_at) / Fold change /veh ACY1 (11761880_at) / RFU 11764098_at / Fold change /veh 11764098_at / RFU SAMD14 (11745864_x_at) / Fold change /veh SAMD14 (11745864_x_at) / RFU NPB (11741838_a_at) / Fold change /veh NPB (11741838_a_at) / RFU TMPRSS6 (11731388_a_at) / Fold change /veh TMPRSS6 (11731388_a_at) / RFU KRTAP10-2 (11738614_at) / Fold change /veh KRTAP10-2 (11738614_at) / RFU ARHGAP8 /// PRR5-ARHGAP8 (11727945_x_at) / Fold change /veh ARHGAP8 /// PRR5-ARHGAP8 (11727945_x_at) / RFU KRTAP5-7 /// NADSYN1 (11734609_at) / Fold change /veh KRTAP5-7 /// NADSYN1 (11734609_at) / RFU RASL12 (11751679_a_at) / Fold change /veh RASL12 (11751679_a_at) / RFU CDKN2B (11736163_a_at) / Fold change /veh CDKN2B (11736163_a_at) / RFU PRF1 (11729649_at) / Fold change /veh PRF1 (11729649_at) / RFU, ZNF638 /// ZNF638-IT1 / Fold change vs veh, ZNF638 /// ZNF638-IT1 / RFU, PANK3 / Fold change vs veh, PANK3 / RFU, SH3YL1 / Fold change vs veh, SH3YL1 / RFU, ZEB2 / Fold change vs veh, ZEB2 / RFU, NRIP1 / Fold change vs veh, NRIP1 / RFU, PTTG1IP / Fold change vs veh, PTTG1IP / RFU, CAPN2 / Fold change vs veh, CAPN2 / RFU, MED14 / Fold change vs veh, MED14 / RFU, SNORA58 / Fold change vs veh, SNORA58 / RFU, C1orf63 / Fold change vs veh, C1orf63 / RFU, LRRFIP1 / Fold change vs veh, LRRFIP1 / RFU, NDUFAF7 / Fold change vs veh, NDUFAF7 / RFU, SLC12A2 / Fold change vs veh, SLC12A2 / RFU, IBTK / Fold change vs veh, IBTK / RFU, ESF1 / Fold change vs veh, ESF1 / Fold change vs veh, TMEM50B / RFU, TAOK1 / Fold change vs veh, TAOK1 / RFU, ACBD3 / Fold change vs veh, ACBD3 / RFU, TMA16 / Fold change vs veh, TMA16 / RFU, RWDD3 / Fold change vs veh, RWDD3 / RFU, BCAT1 / Fold change vs veh, BCAT1 / RFU, EDEM3 / Fold change vs veh, EDEM3 / RFU, TMEM33 / Fold change vs veh, TMEM33 / RFU, WDR75 / Fold change vs veh, WDR75 / RFU, AHCTF1 / Fold change vs veh, AHCTF1 / RFU, TFRC / Fold change vs veh, TFRC / RFU, ZDHHC17 / Fold change vs veh, ZDHHC17 / RFU, NOM1 / Fold change vs veh, NOM1 / RFU, ARL8B / Fold change vs veh, ARL8B / RFU, ZBTB11 / Fold change vs veh, ZBTB11 / RFU, TAMM41 / Fold change vs veh, TAMM41 / RFU, KIAA1704 /// LOC100996395 / Fold change vs veh, KIAA1704 /// LOC100996395 / RFU, ING1 / Fold change vs veh, ING1 / RFU, TRMT61B / Fold change vs veh, TRMT61B / RFU, FUBP3 / Fold change vs veh, FUBP3 / RFU, TP53 / Fold change vs veh, TP53 / RFU, TNKS2 / Fold change vs veh, TNKS2 / RFU, ZFP14 / Fold change vs veh, ZFP14 / RFU, ACTR2 / Fold change vs veh, ACTR2 / RFU, PPP3R1 / Fold change vs veh, PPP3R1 / RFU, PIK3R1 / Fold change vs veh, PIK3R1 / RFU, HNRNPA1 / Fold change vs veh, HNRNPA1 / RFU, RNF170 / Fold change vs veh, RNF170 / RFU, ZNF28 / Fold change vs veh, ZNF28 / RFU, RNGTT / Fold change vs veh, RNGTT / RFU, OGT / Fold change vs veh, OGT / RFU, BRD1 / Fold change vs veh, BRD1 / RFU, MARS / Fold change vs veh, MARS / RFU, ZNF655 / Fold change vs veh, ZNF655 / RFU, FAHD1 / Fold change vs veh, FAHD1 / RFU, BDP1 / Fold change vs veh, BDP1 / RFU, LRRCC1 / Fold change vs veh, LRRCC1 / RFU, ARID1A / Fold change vs veh, ARID1A / RFU, ZNF146 / Fold change vs veh, ZNF146 / RFU, ZNF330 / Fold change vs veh, ZNF330 / RFU, GPN3 / Fold change vs veh, GPN3 / RFU, C9orf123 / Fold change vs veh, C9orf123 / RFU, N4BP2L2 / Fold change vs veh, N4BP2L2 / RFU, ARFIP1 / Fold change vs veh, ARFIP1 / RFU, FAM179B / Fold change vs veh, FAM179B / RFU, BCL10 / Fold change vs veh, BCL10 / RFU, UHRF1BP1L / Fold change vs veh, UHRF1BP1L / RFU, BET1 / Fold change vs veh, BET1 / RFU, CNOT2 / Fold change vs veh, CNOT2 / RFU, ZNF268 / Fold change vs veh, ZNF268 / Fold change vs veh, ZNF507 / RFU, DGCR2 / Fold change vs veh, DGCR2 / RFU, WDSUB1 / Fold change vs veh, WDSUB1 / Fold change vs veh, HSP90B1 /// MIR3652 / RFU, ADSS / Fold change vs veh, ADSS / RFU, GK / Fold change vs veh, GK / RFU, ZNF148 / Fold change vs veh, ZNF148 / RFU, TAF9 / Fold change vs veh, TAF9 / RFU, SLC1A5 / Fold change vs veh, SLC1A5 / RFU, SLMO2 / Fold change vs veh, SLMO2 / RFU, ABCC4 / Fold change vs veh, ABCC4 / RFU, LOC101060439 /// RAP1B / Fold change vs veh, LOC101060439 /// RAP1B / RFU, RFX7 / Fold change vs veh, RFX7 / RFU, GTPBP10 / Fold change vs veh, GTPBP10 / RFU, CNEP1R1 / Fold change vs veh, CNEP1R1 / RFU, BIVM-ERCC5 /// ERCC5 / Fold change vs veh, BIVM-ERCC5 /// ERCC5 / RFU, ILF3 / Fold change vs veh, ILF3 / RFU 11762660_at / Fold change /veh 11762660_at / RFU VCAN (11757783_s_at) / Fold change /veh VCAN (11757783_s_at) / RFU DDX43 (11728927_at) / Fold change /veh DDX43 (11728927_at) / RFU KRT8 (11758188_x_at) / Fold change /veh KRT8 (11758188_x_at) / RFU NKD1 (11759106_at) / Fold change /veh NKD1 (11759106_at) / RFU SRD5A1 (11742802_a_at) / Fold change /veh SRD5A1 (11742802_a_at) / RFU TPSAB1 /// TPSB2 (11721975_s_at) / Fold change /veh TPSAB1 /// TPSB2 (11721975_s_at) / RFU GSTM3 (11746129_a_at) / Fold change /veh GSTM3 (11746129_a_at) / RFU IL23R (11737362_x_at) / Fold change /veh IL23R (11737362_x_at) / RFU TMEM51 (11727254_a_at) / Fold change /veh TMEM51 (11727254_a_at) / RFU PIWIL2 (11732686_x_at) / Fold change /veh PIWIL2 (11732686_x_at) / RFU ORM1 (11744905_x_at) / Fold change /veh ORM1 (11744905_x_at) / RFU CCDC152 (11743942_at) / Fold change /veh CCDC152 (11743942_at) / RFU ECM1 (11717891_a_at) / Fold change /veh ECM1 (11717891_a_at) / RFU IL23R (11748794_a_at) / Fold change /veh IL23R (11748794_a_at) / RFU TNFAIP8L3 (11732012_x_at) / Fold change /veh TNFAIP8L3 (11732012_x_at) / RFU MBOAT4 (11741988_at) / Fold change /veh MBOAT4 (11741988_at) / RFU 11764193_at / Fold change /veh 11764193_at / RFU TMEM53 (11763286_at) / Fold change /veh TMEM53 (11763286_at) / RFU MAGEB2 (11727129_at) / Fold change /veh MAGEB2 (11727129_at) / RFU TMEM200A (11744735_a_at) / Fold change /veh TMEM200A (11744735_a_at) / RFU CCDC152 (11751479_a_at) / Fold change /veh CCDC152 (11751479_a_at) / RFU FAM211A (11726209_a_at) / Fold change /veh FAM211A (11726209_a_at) / RFU RGS16 (11746705_a_at) / Fold change /veh RGS16 (11746705_a_at) / RFU VCAN (11755009_s_at) / Fold change /veh VCAN (11755009_s_at) / RFU RHOB (11743442_s_at) / Fold change /veh RHOB (11743442_s_at) / RFU RGS16 (11720943_a_at) / Fold change /veh RGS16 (11720943_a_at) / RFU RGS16 (11720944_at) / Fold change /veh RGS16 (11720944_at) / RFU, VPS4B / Fold change vs veh, VPS4B / RFU, CREB1 / Fold change vs veh, CREB1 / RFU, DNAJC13 / Fold change vs veh, DNAJC13 / RFU, GNAQ / Fold change vs veh, GNAQ / RFU, CDK5R1 / Fold change vs veh, CDK5R1 / RFU, ZRANB3 / Fold change vs veh, ZRANB3 / RFU, CUL4A / Fold change vs veh, CUL4A / RFU, CCNY / Fold change vs veh, CCNY / RFU, UFL1 / Fold change vs veh, UFL1 / RFU, COG3 / Fold change vs veh, COG3 / RFU, DIAPH2 / Fold change vs veh, DIAPH2 / RFU, SKA2 / Fold change vs veh, SKA2 / RFU, AFF3 / Fold change vs veh, AFF3 / RFU, LMF1 / Fold change vs veh, LMF1 / RFU, IPO11 / Fold change vs veh, IPO11 / RFU, DFFB / Fold change vs veh, DFFB / RFU, FOXP1 / Fold change vs veh, FOXP1 / RFU, CARD8 / Fold change vs veh, CARD8 / RFU, STRN3 / Fold change vs veh, STRN3 / RFU, ADK / Fold change vs veh, ADK / RFU, RASSF2 / Fold change vs veh, RASSF2 / RFU, WIPF1 / Fold change vs veh, WIPF1 / RFU, LARP1B / Fold change vs veh, LARP1B / RFU, RASA1 / Fold change vs veh, RASA1 / RFU, RB1 / Fold change vs veh, RB1 / RFU, PPFIA1 / Fold change vs veh, PPFIA1 / RFU, MAT2A / Fold change vs veh, MAT2A / RFU, CCT5 / Fold change vs veh, CCT5 / RFU, WDR92 / Fold change vs veh, WDR92 / RFU, CUX1 / Fold change vs veh, CUX1 / RFU, TTC7A / Fold change vs veh, TTC7A / RFU, TMEM135 / Fold change vs veh, TMEM135 / RFU, DEPTOR / Fold change vs veh, DEPTOR / RFU, CPM / Fold change vs veh, CPM / RFU, DNAJB6 / Fold change vs veh, DNAJB6 / RFU, CACNA2D3 / Fold change vs veh, CACNA2D3 / RFU, DTX4 / Fold change vs veh, DTX4 / RFU, TFCP2 / Fold change vs veh, TFCP2 / RFU, GMCL1 /// GMCL1P1 / Fold change vs veh, GMCL1 /// GMCL1P1 / RFU, AEBP2 / Fold change vs veh, AEBP2 / RFU, SNHG1 /// SNORD22 /// SNORD25 /// SNORD26 /// SNORD27 /// SNORD28 /// SNORD29 /// SNORD31 / Fold change vs veh, SNHG1 /// SNORD22 /// SNORD25 /// SNORD26 /// SNORD27 /// SNORD28 /// SNORD29 /// SNORD31 / Fold change (Aza/veh), C12orf56 (ProbeSet 11735607_a_at) / Fold change (ACY-1035/veh), C12orf56 (ProbeSet 11735607_a_at) / Fold change (Aza/veh), FGFR1OP (ProbeSet 11751329_s_at) / Fold change (ACY-1035/veh), FGFR1OP (ProbeSet 11751329_s_at) / Fold change (Aza/veh), VPS36 (ProbeSet 11739960_a_at) / Fold change (ACY-1035/veh), VPS36 (ProbeSet 11739960_a_at) / RFU SYPL1 (11715823_x_at) / Fold change /veh SYPL1 (11715823_x_at) / RFU IGFBP7 (11715501_s_at) / Fold change /veh IGFBP7 (11715501_s_at) / RFU REEP3 (11722064_at) / Fold change /veh REEP3 (11722064_at) / RFU IGLL1 (11728026_x_at) / Fold change /veh IGLL1 (11728026_x_at): dose or concentration left out as unconfirmed
Conditions: ProbeSet 11730501_a_at; LIST D

## Nc1ncn([C@@H]2O[C@H](CO)[C@@H](O)[C@H]2O)c(=O)n1 [azacitidine]
  Fold change vs veh, CACNA2D3: 0.63
